US20230348464A1, “NOVEL VDAC1 INHIBITORS” (ABARCEO AB, priority 2020, published 2023)

Key:
[1] = tested on: islets of human T2D organ donors; details: acute exposure of the T2D islets; cited from earlier work
[2] = biological target: T1, recombinant human VDAC1 (hVDAC1) (Homo sapiens, UniProt P21796); assay: Microscale Thermophoresis (MST) binding assay with labeled VDAC1; details: for Kd: MST, 5 nM labeled VDAC1, 25° C., 12-point dilution 100-0.04 µM, read-out: VDAC1 affinity (KD)
T1 construct: His (N); GST (N); purchased LSBio LS-G25810; host or cells: E. coli
T1 sequence (P21796 whole entry): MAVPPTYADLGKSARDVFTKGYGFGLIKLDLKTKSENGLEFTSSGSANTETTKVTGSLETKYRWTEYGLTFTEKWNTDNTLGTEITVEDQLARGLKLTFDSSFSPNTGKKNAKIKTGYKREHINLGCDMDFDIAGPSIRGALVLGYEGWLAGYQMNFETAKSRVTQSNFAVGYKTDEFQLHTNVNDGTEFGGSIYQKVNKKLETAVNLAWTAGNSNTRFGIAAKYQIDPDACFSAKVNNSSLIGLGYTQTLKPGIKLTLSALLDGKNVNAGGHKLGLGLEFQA
From the text: MicroScale Thermophoresis (MST) is a biophysical technique that measures the strength of interaction (affinity) between two molecules by detecting variations in fluorescence signal as a result of an IR-laser induced temperature change. The range of the variation in the fluorescence signal correlates with the binding of a ligand to a fluorescent target. By that it allows for quantitative analysis of molecular interactions in solution on the microliter scale with high sensitivity.The MST signal is composed of two major factors: The TRIC effect and the thermophoresis. TRIC stands for Temperature-Related Intensity-Change and describes how the fluorescence intensity of a fluorophore depends on the local temperature of the solution. For the vast majority of fluorophores, the fluorescence intensity decreases with increasing temperature. Most importantly, however, the extent of the temperature dependence is strongly related to the chemical environment of the fluorophore. This environment is sensitively affected by the binding of a ligand molecule to the fluorescently labeled target molecule (via conformational changes or ligand-dye proximity). The second component of the MST-signal, the thermophoresis describes the movement of molecules along temperature gradients which results in a quantifiable change of the local concentration of the target molecules. As these target molecules are fluorescently labeled in MST, such concentration changes can be monitored simply by fluorescence measurements. This directed movement of molecules depends on their molecular size, charge, and hydration shell. Binding of a ligand to a target molecule leads to the change of at least one of these parameters and therefore to an altered thermophoretic movement of the target-ligand complex compared to the single molecules alone. In sum, both TRIC and thermophoresis contribute to the overall MST-signal, which is detected by fluorescence measurement. Due to this robust physical principle and direct monitoring, MST can be used for determining the affinity and binding strength of almost any kind of molecular interaction or modification of small molecules, proteins, peptides, DNA, sugars, or molecular complexes.
Reconstituted N-terminal His-GST tagged E. coli recombinant human VDAC1 (hVDAC1) was buffer exchanged into protein labeling buffer due to the primary amine of the Tris lyophilization buffer interferes with NHS-based labeling. The labeling buffer was kept as close to the storage buffer of the target protein as given on the protein data sheet (LSBio LS-G25810). Tris was replaced by HEPES. PLURONIC® F-127 was added to 0.05% in order to enhance protein recovery in the final dye removal step. The total volume of the labeling batch was 100 µL. The labeling time was 30 minutes. The labeling reaction was performed at room temperature. Any unbound or unreacted dye was separated from the labeled protein on a gravity-flow gel-filtration column (GE Healthcare, PD Minitrap G-25, GE28-9180-07). The final target buffer was kept as close to the original protein storage buffer as possible. It contained Tris again instead of HEPES.
The first step of the technical assay establishment was a so-called “noise test”. In this test, the intrinsic MST-noise of the labeled target protein was tested. Subsequently, a reference compound or positive control (CAS number: 2086257-77-2) was characterized to confirm previously reported VDAC1 binding (Zhang et al (2019)). Preserving Insulin Secretion in Diabetes by Inhibiting VDAC1 Overexpression and Surface Translocation in β Cells″. Cell Metabolism 29, 64-77.). In short, serial dilutions of the compound having CAS number: 2086257-77-2 was prepared in a way to match the final buffer conditions in the reaction mix (assay buffer). The highest concentration of ligand was 10.0 mM and the lowest 4.88 µM. A total of 12 dilution steps were prepared. […]

| Structure (SMILES) | Kd [2] | also measured |
| --- | --- | --- |
| O=C(NCC(CO)N1CCN(c2ccc(OC(F)(F)F)cc2)CC1)c1ccc(Cl)cc1 (centres unmarked) [Example 1, 4-chloro-N-(3-hydroxy-2-{4-[4-(trifluoromethoxy)phenyl]piperazin-1-yl}propyl)benzamide] | 12 µM |  |
| O=C(CC(CO)N1CCOC2(CCN(c3ccc(OC(F)(F)F)cc3)C2)C1)Nc1ccc(Cl)cc1 (centres unmarked) [Example 5, N-(4-chlorophenyl)-4-hydroxy-3-{2-[4-(trifluoromethoxy)phenyl]-6-oxa-2,9-diazaspiro[4.5]decan-9-yl}butanamide] | 3.8 µM |  |
| O=C(CC(CO)N1CCCC(C2CN(c3ccc(OC(F)(F)F)cc3)C2)C1)Nc1ccc(Cl)cc1 (centres unmarked) [Example 6, N-(4-chlorophenyl)-4-hydroxy-3-(3-{1-[4-(trifluoromethoxy)phenyl]azetidin-3-yl}piperidin-1-yl)butanamide] | 9.8 µM |  |
| O=C(CC(CO)N1CCCC2C1CCN2c1ccc(OC(F)(F)F)cc1)Nc1ccc(Cl)cc1 (centres unmarked) [Example 8, N-(4-chlorophenyl)-4-hydroxy-3-{1-[4-(trifluoromethoxy)phenyl]-octahydro-1H-pyrrolo[3,2-b]pyridin-4-yl}butanamide] | 2.8 µM |  |
| O=C(CC(CO)N1CCCC2(CCCN(c3ccc(OC(F)(F)F)cc3)C2)C1)Nc1ccc(Cl)cc1 (centres unmarked) [Example 10, N-(4-chlorophenyl)-4-hydroxy-3-{8-[4-(trifluoromethoxy)phenyl]-2,8-diazaspiro[5.5]undecan-2-yl}butanamide] | 1.9 µM |  |

Continued, in another order:

| Kd [2] | Structure (SMILES) | also measured |
| --- | --- | --- |
| 14 µM | O=C(CC(CO)N1CCN(c2ccc(OC(F)(F)F)cc2)CC1)Nc1ccc(Cl)cc1 (centres unmarked) [CAS: 2086257-77-2, N-(4-chlorophenyl)-4-hydroxy-3-{4-[4-(trifluoromethoxy)phenyl]piperazin-1-yl}butanamide, reference compound] | glucose-stimulated insulin secretion (GSIS) [1]: restored GSIS |
| 8.4 µM | O=C(CC(CCO)N1CCN(c2ccc(OC(F)(F)F)cc2)CC1)Nc1ccc(Cl)cc1 (centres unmarked) [Example 2, N-(4-chlorophenyl)-5-hydroxy-3-{4-[4-(trifluoromethoxy)phenyl]piperazin-1-yl}pentanamide] |  |
| 5.2 µM | O=C(CC(CO)N1CCCN(c2ccc(OC(F)(F)F)cc2)CC1)Nc1ccc(Cl)cc1 (centres unmarked) [Example 3, N-(4-chlorophenyl)-4-hydroxy-3-{4-[4-(trifluoromethoxy)phenyl]-1,4-diazepan-1-yl}butanamide] |  |
| 5.1 µM | O=C(CC(CO)N1CC2=C(CN(c3ccc(OC(F)(F)F)cc3)C2)C1)Nc1ccc(Cl)cc1 (centres unmarked) [Example 4, N-(4-chlorophenyl)-4-hydroxy-3-{5-[4-(trifluoromethoxy)phenyl]-1H,2H,3H,4H,5H,6H-pyrrolo[3,4-c]pyrrol-2-yl}butanamide] | S/N of MST plot ([2]; MST plot of FIG. 1): 20.1; dFnorm of MST plot ([2]; MST plot of FIG. 1): 23.9 |
| 13.1 µM | O=C(CC(CO)N1CC2(CCN(c3ccc(OC(F)(F)F)cc3)C2)C1)Nc1ccc(Cl)cc1 (centres unmarked) [Example 7, N-(4-chlorophenyl)-4-hydroxy-3-{6-[4-(trifluoromethoxy)phenyl]-2,6-diazaspiro[3.4]octan-2-yl}butanamide] |  |
| 11.4 µM | O=C(CC(CO)N1CC2CN(c3ccc(OC(F)(F)F)cc3)CC2C1)Nc1ccc(Cl)cc1 (centres unmarked) [Example 9, N-(4-chlorophenyl)-4-hydroxy-3-{5-[4-(trifluoromethoxy)phenyl]-octahydropyrrolo[3,4-c]pyrrol-2-yl}butanamide] |  |
